{"source": "patent US10344019B2", "about": "(priority 2010, dated 2019)", "test_in_all_cases": "microbe, parasite or virus in culture", "type_in_all_cases": "cell-based", "key": {"[1]": {"tested_on": "HCV 1b RLuc cells (dicistronic genotype 1b Con1 replicon, RLuc reporter)", "procedure,_shortened": "(§1)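 Replicon cells stably carrying the listed RLuc-encoding dicistronic replicons were seeded and treated with DMSO serial dilutions of compound (10 mM stocks) diluted into culture medium. After 72 h, cells were lysed and Renilla luciferase activity measured. EC50 was derived by non-linear regression.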"}, "[2]": {"tested_on": "HCV 2a JFH-1 Rluc cells (dicistronic genotype 2a JFH-1 replicon, RLuc reporter)", "conditions": "genotype 2a JFH-1 replicon, read-out: 2a JFH", "procedure,_shortened": "as §1"}, "[3]": {"tested_on": "HCV 3a RLuc cells (NS5A chimeric genotype 1b Con1 replicon with consensus genotype 3a NS5A gene)", "procedure,_shortened": "as §1"}, "[4]": {"tested_on": "HCV 1a RLuc cells (dicistronic genotype 1a H77 replicon, RLuc reporter)", "conditions": "read-out: 1a", "procedure,_shortened": "as §1"}, "[5]": {"tested_on": "HCV 4a Rluc cells (NS5A chimeric genotype 1b Con1 replicon with genotype 4a NS5A gene)", "conditions": "Hepatitis C virus, read-out: 4a", "procedure,_shortened": "as §1"}, "[6]": {"conditions": "Hepatitis C virus, read-out: 1b (nM)"}, "[7]": {"conditions": "Hepatitis C virus, read-out: 3a, genotype 3a replicon"}, "[8]": {"conditions": "Hepatitis C virus, genotype 1a replicon"}, "[9]": {"conditions": "Hepatitis C virus, RLuc reporter"}, "[10]": {"conditions": "Hepatitis C virus, read-out: 3a, genotype 3a NS5A chimeric 1b Con1 replicon"}, "[11]": {"conditions": "Hepatitis C virus, genotype 1a H77 replicon, RLuc reporter"}}, "note": "Read-outs that look alike come from different tables or passages of the source."}
{"smiles": "COC(=O)N[C@H](C(=O)N1CCC[C@H]1c1nc2c([nH]1)-c1ccc(-c3ccc4cc(-c5cnc([C@@H]6CCCN6C(=O)[C@H](NC(=O)OC)c6ccccc6)[nH]5)ccc4c3)cc1CC2)C1CCOCC1", "note": "[Example 279]", "values": [{"measurement": "EC50", "setting": "[1]; read-out: 1b", "value": 0.031, "unit": "nM"}, {"measurement": "EC50", "setting": "[2]; RLuc reporter", "value": "1 to 44", "unit": "nM"}, {"measurement": "EC50", "setting": "[3]; read-out: 3a, genotype 3a NS5A chimeric 1b Con1 replicon", "value": "0.001 to 0.99", "unit": "nM"}, {"measurement": "EC50", "setting": "[4]; genotype 1a H77 replicon, RLuc reporter", "value": "1 to 44", "unit": "nM"}, {"measurement": "EC50", "setting": "[5]", "value": "0.001 to 0.99", "unit": "nM"}]}
{"smiles": "COC(=O)N[C@H](C(=O)N1CCC[C@H]1c1nc2ccc3cc(-c4ccc(-c5cnc([C@@H]6CC7(CN6C(=O)[C@H](NC(=O)OC)c6ccccc6)OCCO7)[nH]5)cc4)ccc3c2[nH]1)C1CCOCC1", "note": "[Example 297]", "values": [{"measurement": "EC50", "setting": "[1]; [6]", "value": 0.357, "unit": "nM"}, {"measurement": "EC50", "setting": "[2]; Hepatitis C virus", "value": "0.001 to 0.999", "unit": "nM"}, {"measurement": "EC50", "setting": "[3]; [7]", "value": "0.001 to 0.99", "unit": "nM"}, {"measurement": "EC50", "setting": "[4]; [8]", "value": "0.001 to 0.999", "unit": "nM"}, {"measurement": "EC50", "setting": "[5]", "value": "0.001 to 0.99", "unit": "nM"}]}
{"smiles": "COC(=O)N[C@H](C(=O)N1CCC[C@H]1c1ncc(-c2ccc3cc(-c4ccc(-c5cnc([C@@H]6CCCN6C(=O)[C@@H](NC(=O)OC)[C@@H](C)OC(C)(C)C)[nH]5)cc4)ccc3c2)[nH]1)C(C)C", "note": "[Example 265]", "values": [{"measurement": "EC50", "setting": "[1]; [6]", "value": 0.042, "unit": "nM"}, {"measurement": "EC50", "setting": "[2]; [9]", "value": "1 to 44", "unit": "nM"}, {"measurement": "EC50", "setting": "[3]; [10]", "value": "1 to 4.99", "unit": "nM"}, {"measurement": "EC50", "setting": "[4]; [11]", "value": "1 to 44", "unit": "nM"}, {"measurement": "EC50", "setting": "[5]", "value": "0.001 to 0.99", "unit": "nM"}]}
{"smiles": "COC(=O)N[C@H](C(=O)N1[C@@H]2CC[C@@H](C2)[C@H]1c1nc2c([nH]1)-c1ccc(-c3ccc4c(ccc5nc([C@@H]6CCCN6C(=O)[C@@H](NC(=O)OC)[C@@H](C)OC)[nH]c54)c3)cc1CC2)C(C)C", "note": "[Example 292]", "values": [{"measurement": "EC50", "setting": "[1]; [6]", "value": 0.059, "unit": "nM"}, {"measurement": "EC50", "setting": "[2]; Hepatitis C virus", "value": "0.001 to 0.999", "unit": "nM"}, {"measurement": "EC50", "setting": "[3]; [7]", "value": "0.001 to 0.99", "unit": "nM"}, {"measurement": "EC50", "setting": "[4]; [8]", "value": "0.001 to 0.999", "unit": "nM"}, {"measurement": "EC50", "setting": "[5]", "value": "0.001 to 0.99", "unit": "nM"}]}
{"smiles": "COC(=O)N[C@H](C(=O)N1CCC[C@H]1c1nc2ccc3cc(-c4ccc5cc(-c6cnc([C@@H]7CCCN7C(=O)[C@H](NC(=O)C(C)(C)O)c7ccccc7)[nH]6)ccc5c4)ccc3c2[nH]1)C(C)C", "note": "[Example 287]", "values": [{"measurement": "EC50", "setting": "[1]; [6]", "value": 0.006, "unit": "nM"}, {"measurement": "EC50", "setting": "[2]; [9]", "value": "0.001 to 0.999", "unit": "nM"}, {"measurement": "EC50", "setting": "[3]; [10]", "value": "0.001 to 0.99", "unit": "nM"}, {"measurement": "EC50", "setting": "[4]; [11]", "value": "0.001 to 0.999", "unit": "nM"}, {"measurement": "EC50", "setting": "[5]", "value": "0.001 to 0.99", "unit": "nM"}]}
{"smiles": "COC(=O)N[C@H](C(=O)N1CC(F)(F)C[C@H]1c1ncc(-c2ccc(-c3ccc4cc(-c5cnc([C@@H]6CCCN6C(=O)[C@H](NC(=O)OC)c6ccccc6)[nH]5)ccc4c3)cc2)[nH]1)C(C)C", "note": "[Example 232]", "values": [{"measurement": "EC50", "setting": "[1]; [6]", "value": 0.004, "unit": "nM"}, {"measurement": "EC50", "setting": "[2]; [9]", "value": "0.001 to 0.999", "unit": "nM"}, {"measurement": "EC50", "setting": "[3]; [10]", "value": "0.001 to 0.99", "unit": "nM"}, {"measurement": "EC50", "setting": "[4]; [11]", "value": "0.001 to 0.999", "unit": "nM"}, {"measurement": "EC50", "setting": "[5]", "value": "0.001 to 0.99", "unit": "nM"}]}
{"smiles": "COC(=O)NC(C(=O)N1CCC[C@H]1c1ncc(-c2ccc3c(c2)C(F)(F)c2cc(-c4ccc(-c5cnc([C@@H]6CCCN6C(=O)[C@@H](NC(=O)OC)C6CCOCC6)[nH]5)cc4)ccc2-3)[nH]1)C1CCOCC1", "note": "(some centres unmarked) [Example 202]", "values": [{"measurement": "EC50", "setting": "[1]; [6]", "value": 0.017, "unit": "nM"}, {"measurement": "EC50", "setting": "[2]; [9]", "value": "1 to 44", "unit": "nM"}, {"measurement": "EC50", "setting": "[3]; [10]", "value": "> 5", "unit": "nM"}, {"measurement": "EC50", "setting": "[4]; [11]", "value": "0.001 to 0.999", "unit": "nM"}, {"measurement": "EC50", "setting": "[5]", "value": "0.001 to 0.99", "unit": "nM"}]}
{"smiles": "COC(=O)NC(C(=O)N[C@H](c1ncc(-c2ccc3c(c2)C(F)(F)c2cc(-c4ccc5nc([C@@H]6CCCN6C(=O)[C@@H](NC(=O)OC)[C@@H](C)OC)[nH]c5c4)ccc2-3)[nH]1)C(C)C)C(C)C", "note": "(some centres unmarked) [Example 248]", "values": [{"measurement": "EC50", "setting": "[1]; [6]", "value": 0.024, "unit": "nM"}, {"measurement": "EC50", "setting": "[2]; [9]", "value": "1 to 44", "unit": "nM"}, {"measurement": "EC50", "setting": "[3]; [10]", "value": "> 5", "unit": "nM"}, {"measurement": "EC50", "setting": "[4]; [11]", "value": "1 to 44", "unit": "nM"}, {"measurement": "EC50", "setting": "[5]", "value": "0.001 to 0.99", "unit": "nM"}]}
{"smiles": "COC(=O)N[C@H](C(=O)N1CCC[C@H]1c1ncc(-c2ccc3c(c2)C(F)(F)c2cc(-c4ccc5nc([C@@H]6CCCN6C(=O)[C@H](NC(=O)OC)c6ccccc6)[nH]c5c4)ccc2-3)[nH]1)C1CCOCC1", "note": "[Example 259]", "values": [{"measurement": "EC50", "setting": "[1]; [6]", "value": 0.014, "unit": "nM"}, {"measurement": "EC50", "setting": "[2]; [9]", "value": "0.001 to 0.999", "unit": "nM"}, {"measurement": "EC50", "setting": "[3]; [10]", "value": "0.001 to 0.99", "unit": "nM"}, {"measurement": "EC50", "setting": "[4]; [11]", "value": "0.001 to 0.999", "unit": "nM"}, {"measurement": "EC50", "setting": "[5]", "value": "0.001 to 0.99", "unit": "nM"}]}
{"smiles": "COC(=O)N[C@H](C(=O)N1CCC[C@H]1c1ncc(-c2ccc(-c3cc4ccc(-c5c[nH]c([C@@H]6CCCN6C(=O)[C@H](NC(=O)OC)c6ccccc6)n5)cc4s3)cc2)[nH]1)C(C)C", "note": "[Example 252]", "values": [{"measurement": "EC50", "setting": "[1]; [6]", "value": 0.004, "unit": "nM"}, {"measurement": "EC50", "setting": "[2]; [9]", "value": "0.001 to 0.999", "unit": "nM"}, {"measurement": "EC50", "setting": "[3]; [10]", "value": "0.001 to 0.99", "unit": "nM"}, {"measurement": "EC50", "setting": "[4]; [11]", "value": "0.001 to 0.999", "unit": "nM"}, {"measurement": "EC50", "setting": "[5]", "value": "0.001 to 0.99", "unit": "nM"}]}
